Experimental data published in ChEMBL document CHEMBL1147682, “New 4-(4-methyl-phenyl)phthalazin-1(2H)-one derivatives and their effects on alpha1-receptors” (Bioorg Med Chem Lett, 2006).

Columns and labels:
Type in all cases: tissue-based
[1] = molecular target: T1, Serotonin 1a (5-HT1a) receptor/Adrenergic receptor alpha-1 (Rattus norvegicus) (UniProt P15823+P23944+P43140+P19327); test: Selectivity for alpha-1 adrenergic receptor over 5HT1A serotonergic receptor in rat cerebral cortex
[2] = molecular target: T2, Adrenergic receptor alpha-1 (Rattus norvegicus, UniProt P15823+P23944+P43140); test: Displacement of [3H]prazosin from alpha-1 adrenergic receptor in rat cerebral cortex
T2 sequence (P15823 whole entry): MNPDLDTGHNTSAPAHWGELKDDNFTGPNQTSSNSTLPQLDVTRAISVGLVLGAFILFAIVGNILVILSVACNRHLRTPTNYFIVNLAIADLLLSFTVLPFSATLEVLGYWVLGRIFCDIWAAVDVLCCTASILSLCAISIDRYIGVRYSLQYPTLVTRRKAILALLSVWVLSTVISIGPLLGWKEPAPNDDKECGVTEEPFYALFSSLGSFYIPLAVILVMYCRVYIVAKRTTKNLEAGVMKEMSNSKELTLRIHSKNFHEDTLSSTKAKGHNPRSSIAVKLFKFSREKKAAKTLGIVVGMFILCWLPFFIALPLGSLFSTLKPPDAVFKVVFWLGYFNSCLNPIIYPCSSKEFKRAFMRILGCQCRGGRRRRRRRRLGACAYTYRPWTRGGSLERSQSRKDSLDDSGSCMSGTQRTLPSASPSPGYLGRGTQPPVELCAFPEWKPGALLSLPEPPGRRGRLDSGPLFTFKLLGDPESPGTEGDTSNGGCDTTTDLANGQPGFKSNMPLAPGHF
T2 sequence (P23944 whole entry): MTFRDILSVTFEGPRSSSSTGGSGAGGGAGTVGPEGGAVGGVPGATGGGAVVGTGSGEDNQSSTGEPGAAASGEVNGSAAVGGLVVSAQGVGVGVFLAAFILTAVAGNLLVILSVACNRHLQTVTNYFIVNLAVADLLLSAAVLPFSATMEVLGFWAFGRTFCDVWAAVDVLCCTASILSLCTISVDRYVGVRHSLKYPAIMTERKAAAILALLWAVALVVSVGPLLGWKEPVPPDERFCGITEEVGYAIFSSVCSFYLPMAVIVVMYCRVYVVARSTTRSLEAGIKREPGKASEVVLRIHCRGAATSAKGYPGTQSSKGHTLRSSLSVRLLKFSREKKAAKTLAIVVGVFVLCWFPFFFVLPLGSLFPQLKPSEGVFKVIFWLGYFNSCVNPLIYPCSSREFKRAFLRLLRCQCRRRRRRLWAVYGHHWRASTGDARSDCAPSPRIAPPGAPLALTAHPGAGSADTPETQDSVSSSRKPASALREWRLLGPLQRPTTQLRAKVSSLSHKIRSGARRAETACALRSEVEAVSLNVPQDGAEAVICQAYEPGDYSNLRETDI
T2 sequence (P43140 whole entry): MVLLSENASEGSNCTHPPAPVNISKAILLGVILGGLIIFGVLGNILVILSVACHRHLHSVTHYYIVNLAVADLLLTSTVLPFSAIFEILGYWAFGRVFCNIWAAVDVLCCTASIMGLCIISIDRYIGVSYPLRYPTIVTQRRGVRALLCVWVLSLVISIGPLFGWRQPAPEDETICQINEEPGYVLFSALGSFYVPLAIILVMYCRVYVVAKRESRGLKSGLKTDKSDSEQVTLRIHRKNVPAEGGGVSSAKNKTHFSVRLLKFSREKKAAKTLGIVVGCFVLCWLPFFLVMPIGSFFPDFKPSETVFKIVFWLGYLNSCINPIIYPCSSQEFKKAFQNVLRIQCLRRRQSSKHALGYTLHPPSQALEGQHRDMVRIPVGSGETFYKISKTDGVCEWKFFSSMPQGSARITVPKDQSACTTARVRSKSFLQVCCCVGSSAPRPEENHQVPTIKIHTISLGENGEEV

[3] = molecular target: T3, 5-hydroxytryptamine receptor 1A (Rattus norvegicus, UniProt P19327); test: Displacement of [3H]8-OH-DPAT from 5HT1A serotonergic receptor in rat cerebral cortex
T3 sequence (P19327 whole entry): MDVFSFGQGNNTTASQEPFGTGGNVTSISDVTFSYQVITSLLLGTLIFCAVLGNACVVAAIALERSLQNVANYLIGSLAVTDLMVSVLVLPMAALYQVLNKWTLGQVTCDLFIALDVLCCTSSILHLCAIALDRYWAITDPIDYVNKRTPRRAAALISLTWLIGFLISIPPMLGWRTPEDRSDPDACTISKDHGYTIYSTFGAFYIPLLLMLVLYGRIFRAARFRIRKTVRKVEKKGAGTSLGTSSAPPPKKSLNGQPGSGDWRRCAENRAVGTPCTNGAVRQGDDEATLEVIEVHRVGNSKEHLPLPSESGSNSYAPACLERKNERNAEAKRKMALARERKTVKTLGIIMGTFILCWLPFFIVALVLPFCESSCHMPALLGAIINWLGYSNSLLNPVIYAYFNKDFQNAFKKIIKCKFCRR

[4] = molecular target: T4, Adrenergic receptor alpha-2 (Rattus norvegicus, UniProt P22086+P19328+P22909); test: Displacement of [3H]rauwolscine from alpha-2 adrenergic receptor in rat cerebral cortex
T4 sequence (P22086 whole entry): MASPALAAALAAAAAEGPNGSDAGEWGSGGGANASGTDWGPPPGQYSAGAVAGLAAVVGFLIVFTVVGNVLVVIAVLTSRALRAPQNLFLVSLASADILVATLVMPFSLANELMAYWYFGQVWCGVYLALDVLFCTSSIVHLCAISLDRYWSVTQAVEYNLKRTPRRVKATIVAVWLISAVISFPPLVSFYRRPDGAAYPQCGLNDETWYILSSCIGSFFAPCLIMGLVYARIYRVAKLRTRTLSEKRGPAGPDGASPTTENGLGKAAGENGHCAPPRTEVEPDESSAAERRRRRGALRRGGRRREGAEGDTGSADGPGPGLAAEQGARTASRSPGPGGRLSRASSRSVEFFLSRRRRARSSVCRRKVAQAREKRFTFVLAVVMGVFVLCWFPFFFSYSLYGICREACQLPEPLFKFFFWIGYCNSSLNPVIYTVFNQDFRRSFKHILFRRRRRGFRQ
T4 sequence (P19328 whole entry): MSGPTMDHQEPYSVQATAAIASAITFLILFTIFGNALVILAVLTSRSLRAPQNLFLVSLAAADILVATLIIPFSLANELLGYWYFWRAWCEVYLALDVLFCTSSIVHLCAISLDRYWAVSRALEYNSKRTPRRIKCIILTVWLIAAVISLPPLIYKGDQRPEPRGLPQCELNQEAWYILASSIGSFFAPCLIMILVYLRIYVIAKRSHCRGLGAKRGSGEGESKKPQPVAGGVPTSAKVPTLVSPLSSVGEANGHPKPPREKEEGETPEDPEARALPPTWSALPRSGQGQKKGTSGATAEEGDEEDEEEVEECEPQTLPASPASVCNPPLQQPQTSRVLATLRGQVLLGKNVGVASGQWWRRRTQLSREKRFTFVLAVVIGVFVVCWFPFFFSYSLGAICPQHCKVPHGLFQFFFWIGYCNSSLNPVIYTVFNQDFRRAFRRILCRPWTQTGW
T4 sequence (P22909 whole entry): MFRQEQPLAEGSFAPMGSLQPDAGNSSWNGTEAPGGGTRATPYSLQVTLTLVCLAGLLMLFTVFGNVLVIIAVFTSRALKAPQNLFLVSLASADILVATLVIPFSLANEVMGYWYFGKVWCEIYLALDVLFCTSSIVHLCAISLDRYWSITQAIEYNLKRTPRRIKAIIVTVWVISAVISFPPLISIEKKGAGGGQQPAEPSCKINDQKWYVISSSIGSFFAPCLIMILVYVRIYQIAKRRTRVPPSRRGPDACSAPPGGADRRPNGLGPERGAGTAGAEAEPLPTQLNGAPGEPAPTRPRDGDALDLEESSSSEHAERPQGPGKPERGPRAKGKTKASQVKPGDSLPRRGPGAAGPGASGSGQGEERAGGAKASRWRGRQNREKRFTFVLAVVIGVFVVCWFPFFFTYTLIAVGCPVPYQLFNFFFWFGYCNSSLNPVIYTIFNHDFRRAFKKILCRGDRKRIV

[5] = molecular target: T1, Serotonin 1a (5-HT1a) receptor/Adrenergic receptor alpha-1 (Rattus norvegicus); test: Selectivity for 5HT1A serotonergic receptor over alpha1 adrenergic receptor in rat cerebral cortex
[6] = molecular target: T5, 5-hydroxytryptamine receptor 1A (Rattus norvegicus) (UniProt P19327); test: Displacement of [3H]8-OH-DPAT from 5HT1A serotonergic receptor in rat cerebral cortex at 10 uM
T5 sequence (whole entry): T3 sequence (P19327 whole entry)

[7] = molecular target: Adrenergic receptor alpha-2 (Rattus norvegicus) (UniProt P22086+P19328+P22909); test: Displacement of [3H]rauwolscine from alpha-2 adrenergic receptor in rat cerebral cortex at 10 uM
[8] = molecular target: Adrenergic receptor alpha-1 (Rattus norvegicus) (UniProt P15823+P23944+P43140); test: Displacement of [3H]prazosin from alpha-1 adrenergic receptor in rat cerebral cortex at 10 uM

Structure (SMILES)	Ratio Ki [1]	Ki [2] [nM]	Ki [3] [nM]	Ki [4] [nM]	Ratio Ki [5]	inhibition [6] [%]	inhibition [7] [%]	inhibition [8] [%]
Cc1ccc(-c2nn(CCCCN3CCN(c4cccc(Cl)c4)CC3)c(=O)c3ccccc23)cc1	9.3	12.4	116	178.2				
Cc1ccc(-c2nn(CCCCN3CCN(c4cccc(C(F)(F)F)c4)CC3)c(=O)c3ccccc23)cc1		111.6	71.8	186.5	1.5			
CCOc1ccccc1N1CCN(CCCCCCCn2nc(-c3ccc(C)cc3)c3ccccc3c2=O)CC1	28.2	7.33	207	889				
Cc1ccc(-c2nn(CCCCCCCN3CCN(c4cccc(C(F)(F)F)c4)CC3)c(=O)c3ccccc23)cc1	1.9	382	722	4180				
Cc1ccc(-c2nn(CCCCCCCN3CCN(c4cccc(Cl)c4)CC3)c(=O)c3ccccc23)cc1	18.2	37	673	430				
Cc1ccc(-c2nn(CCCCCCCn3ncc4ccccc4c3=O)c(=O)c3ccccc23)cc1						10	15	26
Cc1ccc(-c2nn(CCCCN3CCN(c4ccccc4)CC3)c(=O)c3ccccc23)cc1	18.8	23.9	450	186				
Cc1ccc(-c2nn(CCCCN3CCN(c4ncccn4)CC3)c(=O)c3ccccc23)cc1	4.4	270	1180	2034				
Cc1ccc(-c2nn(CCCCN3CCN(CC4COc5ccccc5O4)CC3)c(=O)c3ccccc23)cc1 (configuration not stated)	10.7	180	1930	278				
Cc1ccc(-c2nn(CCCCN3CCN(c4ccccc4OC(C)C)CC3)c(=O)c3ccccc23)cc1	75.7	1.07	81	96				

The remaining lines, values ahead:

Ratio Ki [1]	Ki [2] [nM]	Ki [3] [nM]	Ki [4] [nM]	Ratio Ki [5]	inhibition [6] [%]	inhibition [7] [%]	inhibition [8] [%]	Structure (SMILES)
135	3.5	473	578					COc1ccccc1N1CCN(CCn2nc(-c3ccc(C)cc3)c3ccccc3c2=O)CC1
14.8	2.6	38.5	60.37					COc1ccccc1N1CCN(CCCCn2nc(-c3ccc(C)cc3)c3ccccc3c2=O)CC1
244	3.9	951	867					CCOc1ccccc1N1CCN(CCn2nc(-c3ccc(C)cc3)c3ccccc3c2=O)CC1
245	25.3	6200	4262					Cc1ccc(-c2nn(CCN3CCN(c4ccccc4)CC3)c(=O)c3ccccc23)cc1
258	5	1290	1301					Cc1ccc(-c2nn(CCN3CCN(c4ccccc4OC(C)C)CC3)c(=O)c3ccccc23)cc1
12	8.4	101	105					COc1ccccc1N1CCN(CCCCCCCn2nc(-c3ccc(C)cc3)c3ccccc3c2=O)CC1
18.3	2.23	41	60.47					CCOc1ccccc1N1CCN(CCCCn2nc(-c3ccc(C)cc3)c3ccccc3c2=O)CC1
